“And” between values parts separate entries of the source, which are not always exact repeats. Identical values can stand only once. Positions of bridges follow the written chain, without caps; N, C: chain ends. Non-standard residues stand in square brackets, D forms with d. Residues, ends and D or L forms follow the SMILES beside them. *: point of attachment. Octanoyl = CCCCCCCC(=O)*; Dab = NCC[C@H](N)C(=O)O; Dap = NC[C@H](N)C(=O)O
Experiments:
P. aeruginosa = experiment: Checkerboard assay (antibiotic potentiation); type: cell-based, Pseudomonas aeruginosa; settings: for MICcompound 1: compound 1 alone
A. baumannii = experiment: Checkerboard assay (antibiotic potentiation); type: cell-based, Acinetobacter baumannii; settings: compound 1 alone
E. coli = experiment: Checkerboard assay (antibiotic potentiation); type: cell-based, Escherichia coli; settings: compound 1 alone
K. pneumoniae = experiment: Checkerboard assay (antibiotic potentiation); type: cell-based, Klebsiella pneumoniae; settings: compound 1 alone
E. cloacae = experiment: Checkerboard assay (antibiotic potentiation); type: cell-based, Enterobacter cloacae; settings: E. cloacae 121887 (colistin-resistant); compound 1 alone
E. faecalis ATCC 29212 = experiment: Checkerboard assay (rifampicin potentiation); type: cell-based; settings: compound 1 alone
Description: (§1) The interaction between the compounds and the antibiotics was evaluated using the fractional inhibitory concentration (FIC) index. FIC indices of ≤0.5 is synergistic, 0.5 < × ≤ 4 is additive, whereas >4 is antagonistic ([34]). […] .
(§2) The bacterial isolates were acquired from ATCC or the Canadian Ward Surveillance (CANWARD) study ([56]). CANWARD isolates were collected from infected patients admitted to participating medical centers across Canada.
(§3) The antibiotic and compounds were serially diluted 2-fold in CAMHB along the x- and y-axis, respectively, on a 96-well plate that was subsequently incubated with equal volumes of bacterial inoculum overnight at 37°C. Wells containing only media were used as negative controls, and wells containing only bacteria were used as positive controls. Synergy was measured by the FIC index, which is the summation of the individual FICs of the antibiotic and the compound. The FIC is calculated by dividing the MIC of one agent in the presence of another by the MIC of the agent alone. Turbidity was confirmed with a Molecular Devices (United States) EMax Plus microplate reader at a wavelength of 590 nm. The FBS studies were conducted by following a previously published protocol ([29], [50]). The FBS was inactivated by heating at 56°C for 30 min with constant swirling.

E. faecium ATCC 27270 = experiment: Checkerboard assay (rifampicin potentiation); type: cell-based; settings: compound 1 alone
Description: as §1, §2, §3

[1] = tested on: Methicillin-resistant S. aureus ATCC 22592; experiment: Checkerboard assay (rifampicin potentiation); type: cell-based; settings: MRSA ATCC 22592; compound 1 alone
Description: as §1, §2, §3

P. aeruginosa 259-96916 = experiment: Time-kill kinetics assay; settings: monotherapy at 8 µg/mL, LB, 37°C, up to 24 h
A. baumannii AB027 = experiment: Time-kill kinetics assay; settings: monotherapy at 8 µg/mL, LB, 37°C, up to 24 h
Description: Bactericidal and bacteriostatic activity correspond to a ≥ 3 log10 and a < 3 log10 decrease in bacterial load after 24 h relative to the starting inoculum, respectively ([39]).
The time- and concentration-dependent killing of the antibiotic/compound combinations was assessed using the time-kill kinetics assay by following a previously described protocol ([27][–][29]). Bacterial culture grown overnight was diluted in phosphate-buffered saline (PBS) to 0.5 McFarland turbidity and was further diluted 1:50 in LB. Bacterial cultures treated with varying concentrations of antibiotic alone, compound alone, or the combination of antibiotic and compound were incubated in a shaking incubator at 250 rpm and at 37°C. At designated time points, 100 µL aliquots were taken from the culture tubes, serially diluted in PBS, and plated on LB agar plates. The bacterial colonies were then counted after incubation of the plates for 18 h at 37°C.

With `CCCCCCCC(=O)N[C@@H](CN)C(=O)N[C@H](C(=O)N[C@@H](CN)C(=O)N[C@H]1CCNC(=O)[C@H]([C@@H](C)O)NC(=O)[C@H](CN)NC(=O)[C@H](CN)NC(=O)[C@H](CC(C)C)NC(=O)[C@@H](Cc2ccccc2)NC(=O)[C@H](CN)NC1=O)[C@@H](C)O` [Compound 1] (Octanoyl-[Dap]T[Dap][Dab][Dap][dF]L[Dap][Dap]T; lactam 4-C) the “MICcompound 1” value (P. aeruginosa; P. aeruginosa 259-96916) was >128 µg/mL, the “MICcompound 1” value (P. aeruginosa; P. aeruginosa 262-101856) was >128 µg/mL and the “MICcompound 1” value (P. aeruginosa; P. aeruginosa 264-105354) was >128 µg/mL. The “MICcompound 1” value (P. aeruginosa; P. aeruginosa 101243 (colistin-resistant)) was >128 µg/mL, the “MICcompound 1” value (P. aeruginosa; P. aeruginosa 114228 (colistin-resistant)) was >128 µg/mL and the “MICcompound 1” value (P. aeruginosa; P. aeruginosa PAO1, 0% FBS) was >128 µg/mL. For the same compound, the “MICcompound 1” value (P. aeruginosa; P. aeruginosa PAO1, 10% FBS (heat-inactivated)) was >128 µg/mL, the “MICcompound 1” value (P. aeruginosa; P. aeruginosa PAO1, 25% FBS) was >128 µg/mL and the “MICcompound 1” value (P. aeruginosa; P. aeruginosa PAO1, 50% FBS) was >128 µg/mL. For the same compound, the “MICcompound 1” value (P. aeruginosa; P. aeruginosa PAO1, [Mg2+] 25 mM) was >128 µg/mL, the “MICcompound 1” value (P. aeruginosa; P. aeruginosa PAO1, [Mg2+] 0.4–0.5 mM (CAMHB)) was >128 µg/mL and the MICcompound (P. aeruginosa; P. aeruginosa PAO1, compound alone) was >128 µg/mL. For the same compound, the “MICcompound 1” value (A. baumannii; A. baumannii 92247 (colistin-resistant)) was >128 µg/mL, the “MICcompound 1” value (A. baumannii; A. baumannii 110193) was 32 µg/mL and 16 µg/mL and the “MICcompound 1” value (A. baumannii; A. baumannii AB027) was >128 µg/mL. For the same compound, the “MICcompound 1” value (A. baumannii; A. baumannii ATCC 17978, 0% FBS) was 16 µg/mL, the “MICcompound 1” value (A. baumannii; A. baumannii ATCC 17978, 10% FBS (heat-inactivated)) was >128 µg/mL and the “MICcompound 1” value (A. baumannii; A. baumannii ATCC 17978, 25% FBS) was >128 µg/mL. For the same compound, the “MICcompound 1” value (A. baumannii; A. baumannii ATCC 17978, 50% FBS) was >128 µg/mL, the “MICcompound 1” value (A. baumannii; A. baumannii ATCC 17978, [Mg2+] 25 mM) was >128 µg/mL and the “MICcompound 1” value (A. baumannii; A. baumannii ATCC 17978, [Mg2+] 0.4–0.5 mM (CAMHB)) was 16 µg/mL. For the same compound, the “MICcompound 1” value (E. coli; E. coli 94393 (colistin-resistant)) was >128 µg/mL, the “MICcompound 1” value (E. coli; E. coli 94474 (colistin-resistant)) was >128 µg/mL and the “MICcompound 1” value (K. pneumoniae; K. pneumoniae 113250 (colistin-resistant)) was >128 µg/mL. The “MICcompound 1” value (K. pneumoniae; K. pneumoniae 116381) was >128 µg/mL, the “MICcompound 1” value (E. cloacae) was >128 µg/mL and the “MICcompound 1” value (E. faecalis ATCC 29212) was >128 µg/mL. The “MICcompound 1” value (E. faecium ATCC 27270) was >128 µg/mL, the “MICcompound 1” value [1] was >128 µg/mL and the “time-kill outcome” value (P. aeruginosa 259-96916) was “decrease in growth up to 4 h, with regrowth occurring at 8 h”. The “time-kill outcome” value (A. baumannii AB027) was “growth curves similar to that of untreated bacteria”.
